A short description of experiment [1]: Continuous on-line measurement of free calcium concentrations in the extra-corporeal blood circulation. The format is in vivo, young rabbits. To be noted: for calcaemic response: rat CGRP i.v. How it is done:
• The general scheme for this test is represented in figure 1 attached: • A flow-through electrode system with two Ca2+^-selective liquid membrane electrodes is inserted in the arterio-venous extracor- poreal blood circulatory system of the test animal this being established by means of indwelling catheters connecting the femoral artery with femoral vein.
The blood is pumped from the artery to the vein at a flow rate of 18 ml/h through the system containing Ca2+^-selective electrodes. A second peristaltic pump aspirates the reference solution of electrolytes, which is transported at a flow rate of 0.9 ml/h, passing the compartment of the reference electrode and mixed with the circulating blood at the site of the common electrode. The mixed fluids are then returned into the ciculatory system of the animal.
The Ca2+^-selective electrode allows the potentiometric measurement of the ionized calcium quantitatively. The potential difference between the reference electrode and the Ca2+^-selective electrode is measured differentially relative to the common electrode. The analogue signal of the difference amplifier is processed by a digital voltmeter. Results are obtained in mV and are continously recorded as a function of time. The voltage difference is […].
Following administration of CGRPs i.v. to the test animal, a potent influence on Ca2+ concentration over extended periods of time and up to at least 5 hours is observed at dosages of from about 0.1 to about 25 µg/kg. More importantly results observed indicate that CGRPs exert both a hypo- and hyper-calcaemic effect which is both dose- and time-dependent. […] Specific results obtained following Ix administration of rat CGRP at varying dosages and illustrating activity profile are shown in the accompanying Figs. 2 through 5. • In all cases administration of test substance occurs at time • Fig.2 .: This is a plot for observed change in calcium level [Δ% calcaemia] with time, following i.v. administration of rat CGRP at dosages of from 0.156 µg/kg to 5.0 µg/kg.

Experiment [2] can be described thus: Clinical trial B: human CGRP s.c. accompanied by salmon or human calcitonin. The format is in vivo, volunteer subjects (male and female). To be noted: human CGRP s.c. 10 to 200 µg accompanied by salmon or human calcitonin 5 to 100 I.U. (or M.R.C) s.c. or i.m. An excerpt:
The methodology of clinical trial A is repeated, with administration of human CGRP in accordance with regimen 1.3. In this trial however administration is accompanied by administration of salmon or human calcitonin at dosages of from 5 to 100 I.U. (or M.R.C), [e.g. at dosages of 5, 10, 25, 50 or 100 I.U. (or M.R.C.)] administered by injection either s.c. or i.m.

The nature of experiment [3]: Clinical trial A: human CGRP in active Paget's disease, serum parameters prior and post administration. The format is in vivo, volunteer subjects (male and female). How it is done:
Human CGRP is employed as trial substance and is tested by administration in accordance with the following regimens.
The following parameters are measured prior and post-administration: circulating calcium serum levels: alkaline phosphatase: hydroxyproline: bone specific protein levels.

As to `CC(C)C[C@H](NC(=O)CNC(=O)[C@H](C)NC(=O)[C@H](CC(C)C)NC(=O)[C@H](CCCNC(=N)N)NC(=O)[C@H](Cc1c[nH]cn1)NC(=O)[C@@H](NC(=O)[C@@H](NC(=O)[C@@H]1CSSC[C@H](NC(=O)[C@H](C)N)C(=O)N[C@@H](CC(=O)O)C(=O)N[C@@H]([C@@H](C)O)C(=O)N[C@@H](C)C(=O)N[C@@H]([C@@H](C)O)C(=O)N1)C(C)C)[C@@H](C)O)C(=O)N[C@@H](CC(C)C)C(=O)N[C@@H](CO)C(=O)N[C@@H](CCCNC(=N)N)C(=O)N[C@@H](CO)C(=O)NCC(=O)NCC(=O)N[C@H](C(=O)N[C@H](C(=O)N[C@@H](CCCCN)C(=O)N[C@@H](CC(N)=O)C(=O)N[C@@H](CC(N)=O)C(=O)N[C@@H](Cc1ccccc1)C(=O)N[C@H](C(=O)N1CCC[C@H]1C(=O)N[C@H](C(=O)N[C@@H](CC(N)=O)C(=O)N[C@H](C(=O)NCC(=O)N[C@@H](CO)C(=O)N[C@@H](CCCCN)C(=O)N[C@@H](C)C(=O)N[C@@H](Cc1ccccc1)C(N)=O)C(C)C)[C@@H](C)O)C(C)C)C(C)C)C(C)C` [human CGRP], the “observed change in calcium level, course of response” value in experiment [1] (Fig. 6, i.v., 2.5 µg/kg, groups of 6 animals) is given as “parallels that recorded for rat CGRP in Fig. 5”. In experiment [2], the “influence on measured serum parameters” value is given as “observed in this trial as in trial A”. The “reduction of circulating serum calcium levels” value in experiment [2] (compared with salmon calcitonin alone) was “superior to that observed on administration of salmon calcitonin alone”. In addition, in experiment [3] (i.v. 0.1 to 20 µg, i.v. infusion 10 to 100 µg, s.c. 10 to 200 µg, intranasal 10 to 500 µg, or s.c. daily for 5 to 7 days), the “circulating serum calcium levels” value was “significant reduction”. Moreover, in experiment [3] (same regimens), the alkaline phosphatase levels entry was “concomitant reduction” and the hydroxyproline levels entry was “concomitant reduction”. Besides, in experiment [3] (same regimens, in particular proteins reflecting bone metabolic turn over), the bone specific proteins result is reported as “marked reduction”.

On to `CC(C)C[C@H](NC(=O)CNC(=O)[C@H](C)NC(=O)[C@H](CC(C)C)NC(=O)[C@H](CCCNC(=N)N)NC(=O)[C@H](Cc1c[nH]cn1)NC(=O)[C@@H](NC(=O)[C@@H](NC(=O)[C@@H]1CSSC[C@H](NC(=O)[C@@H](N)CO)C(=O)N[C@@H](CC(N)=O)C(=O)N[C@@H]([C@@H](C)O)C(=O)N[C@@H](C)C(=O)N[C@@H]([C@@H](C)O)C(=O)N1)C(C)C)[C@@H](C)O)C(=O)N[C@@H](CC(C)C)C(=O)N[C@@H](CO)C(=O)N[C@@H](CCCNC(=N)N)C(=O)N[C@@H](CO)C(=O)NCC(=O)NCC(=O)N[C@H](C(=O)N[C@H](C(=O)N[C@@H](CCCCN)C(=O)N[C@@H](CC(=O)O)C(=O)N[C@@H](CC(N)=O)C(=O)N[C@@H](Cc1ccccc1)C(=O)N[C@H](C(=O)N1CCC[C@H]1C(=O)N[C@H](C(=O)N[C@@H](CC(N)=O)C(=O)N[C@H](C(=O)NCC(=O)N[C@@H](CO)C(=O)N[C@@H](CCC(=O)O)C(=O)N[C@@H](C)C(=O)N[C@@H](Cc1ccccc1)C(N)=O)C(C)C)[C@@H](C)O)C(C)C)C(C)C)C(C)C` [rat CGRP], for which the “AUCS (areas under curve)” value in experiment [1] (Fig. 2, i.v., 0.156 µg/kg to 5.0 µg/kg, calcium level versus time) is recorded as “statistically linear”. In addition, the “observed change in calcium level [Δ% calcaemia]” value in experiment [1] (Fig. 2, i.v., dosages of from 0.156 µg/kg to 5.0 µg/kg) is “decrease (hypocalcaemia)”. For the same compound, in experiment [1] (Fig. 5, 10 pg/kg i.v.), the “observed change in calcium level after the initial hypocalcaemic response” value was “reverse hypercalcaemic response which continues very strongly”. Further, the hypocalcaemic response result in experiment [1] (Fig. 5, 10 pg/kg i.v., compared with untreated control) is “though strongly marked, is transitory only”. For the same compound, the “duration of hypercalcaemic response following initial administration” value in experiment [1] (Fig. 5, 10 pg/kg i.v., printed 'up to at least 5 hours') is “at least 5 hours”. The “observed change in calcium level” value in experiment [1] (Figs 3 to 4, i.v., 2.5 and 5.0 µg/kg, groups of four test animals, compared with untreated controls) is “hypocalcaemia is again observed”. The calcaemic response entry in experiment [1] is listed as “primarily hypo- calcaemic response”; in experiment [1] (dosages in excess of 5 µg/kg), “primarily hyper-calcaemic response preceeded by a transient hypo-calcaemic response at the lower end of the dosage range”.
